Assay results from patent US9624229B2, “Pyrimidine-2-amine compounds and their use as inhibitors of JAK kinases” (Rigel Pharmaceuticals, Inc., priority 2008, dated 2017).
Like-named read-outs stand apart in the source and are kept apart here.

Target: Ba/F3 V617F cells (Homo sapiens, UniProt O60674, V617F, cells depend on it)
Experiment: Proliferation assay (Cell Titer-Glo, 72 h) utilizing Ba/F3 V617F cells
Type: cell-based, mouse
Conditions: Ba/F3 V617F cells, proliferation
Summary of the method: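 Readout is CellTiter-Glo luminescence after 72 h at 37 °C, giving IC50. Cells: Ba/F3 V617F, 1×10^5 cells/mL in RPMI with 10% FBS, treated in duplicate with 3-fold dilution series made from 5 mM DMSO stock, 1:250 in 5% FBS medium, added at 2×.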

[1] = level of activity to inhibit JAK2, read-out: IC50 (the source's name)
[2] = level of activity given as class symbol, read-out: IC50 (the source's name)

Sequence of Ba/F3 V617F cells (O60674 whole entry V617F): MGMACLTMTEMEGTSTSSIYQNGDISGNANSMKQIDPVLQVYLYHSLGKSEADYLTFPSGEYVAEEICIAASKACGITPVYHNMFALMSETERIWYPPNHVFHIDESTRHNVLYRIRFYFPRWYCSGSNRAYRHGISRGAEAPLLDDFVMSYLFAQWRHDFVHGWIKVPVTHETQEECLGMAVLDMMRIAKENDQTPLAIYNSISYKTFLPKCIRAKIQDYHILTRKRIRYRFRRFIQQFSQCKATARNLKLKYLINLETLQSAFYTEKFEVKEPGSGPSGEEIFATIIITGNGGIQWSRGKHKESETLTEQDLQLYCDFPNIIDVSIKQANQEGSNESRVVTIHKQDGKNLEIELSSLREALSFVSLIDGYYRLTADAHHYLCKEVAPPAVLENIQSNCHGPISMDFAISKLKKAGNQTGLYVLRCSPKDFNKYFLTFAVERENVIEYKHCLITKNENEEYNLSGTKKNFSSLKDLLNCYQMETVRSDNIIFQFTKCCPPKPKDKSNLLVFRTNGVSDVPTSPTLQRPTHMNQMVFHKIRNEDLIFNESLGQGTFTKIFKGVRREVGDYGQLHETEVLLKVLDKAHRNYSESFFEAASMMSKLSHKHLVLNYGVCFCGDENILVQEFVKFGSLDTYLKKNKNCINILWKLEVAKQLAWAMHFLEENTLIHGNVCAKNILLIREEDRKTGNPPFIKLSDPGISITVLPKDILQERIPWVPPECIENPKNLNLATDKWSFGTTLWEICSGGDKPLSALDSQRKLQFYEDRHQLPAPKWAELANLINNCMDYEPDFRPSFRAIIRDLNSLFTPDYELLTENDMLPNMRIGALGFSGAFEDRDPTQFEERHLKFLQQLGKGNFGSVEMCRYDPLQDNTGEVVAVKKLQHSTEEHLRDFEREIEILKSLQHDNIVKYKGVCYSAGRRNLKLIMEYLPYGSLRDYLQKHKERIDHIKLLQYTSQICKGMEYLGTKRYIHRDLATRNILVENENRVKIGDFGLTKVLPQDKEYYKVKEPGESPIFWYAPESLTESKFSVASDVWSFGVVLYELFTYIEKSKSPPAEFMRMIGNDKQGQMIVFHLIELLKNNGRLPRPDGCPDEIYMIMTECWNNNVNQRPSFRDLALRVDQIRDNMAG

| GI50 [1] [nM] | GI50 [2] [nM] | Compound |
| --- | --- | --- |
| < 1000 | – | N#Cc1cc(Nc2nccc(-c3ccc(N4CCOCC4)nc3)n2)ccc1N1C[C@@H]2C[C@H]1CN2C1CCCC1 [compound 119, 4-(6-(morpholin-4-yl)pyridin-3-yl)-N-(3-cyano-4-((1S,4S)-5-cyclopentyl-2,5-diazabicyclo[2.2.1]heptan-2-yl)phenyl)pyrimidin-2-amine] |
| < 1000 | – | CN1CCOc2cc(-c3ccnc(Nc4ccc(N5C[C@@H]6C[C@H]5CN6C)c(F)c4)n3)cnc21 [compound 9, 4-(4-methyl-3,4-dihydro-2H-pyrido[3,2-b][1,4]oxazin-7-yl)-N-(3-fluoro-4-((1S,4S)-5-methyl-2,5-diazabicyclo[2.2.1]heptan-2-yl)phenyl)pyrimidin-2-amine] |
| – | < 1000 | Cc1cc(Nc2nccc(-c3cnc4c(c3)OCC(=O)N4)n2)ccc1N1C[C@@H]2C[C@H]1CN2C [compound 209, 4-(3-oxo-3,4-dihydro-2H-pyrido[3,2-b][1,4]oxazin-7-yl)-N-(3-methyl-4-((1S,4S)-5-methyl-2,5-diazabicyclo[2.2.1]heptan-2-yl)phenyl)pyrimidin-2-amine] |
| < 1000 | – | CN1C[C@@H]2C[C@H]1CN2c1ccc(Nc2nccc(-c3cnc(N4CCOCC4)nc3)n2)cc1F [compound 43, 4-(2-(morpholin-4-yl)pyrimidin-5-yl)-N-(3-fluoro-4-((1S,4S)-5-methyl-2,5-diazabicyclo[2.2.1]heptan-2-yl)phenyl)pyrimidin-2-amine] |
| – | < 1000 | CCCNc1ccc(-c2ccnc(Nc3ccc(N4C[C@@H]5C[C@H]4CN5S(C)(=O)=O)c(C)c3)n2)cn1 [compound 238, 4-(6-(propylamino)pyridin-3-yl)-N-(3-methyl-4-((1S,4S)-5-methylsulfonyl-2,5-diazabicyclo[2.2.1]heptan-2-yl)phenyl)pyrimidin-2-amine] |
| – | < 1000 | Cc1cc(Nc2nccc(-c3ccc(N4C[C@@H]5C[C@H]4CO5)nc3)n2)ccc1N1C[C@@H]2C[C@H]1CO2 [compound 216, 4-(6-((1S,4S)-5-oxa-2-azabicyclo[2.2.1]heptan-2-yl)pyridin-3-yl)-N-(3-methyl-4-((1S,4S)-5-oxa-2-azabicyclo[2.2.1]heptan-2-yl)phenyl)pyrimidin-2-amine] |
| 1000 to 10000 | – | Cc1cc(Nc2nccc(-c3cncc(C#N)c3)n2)ccc1N1C[C@@H]2C[C@H]1CN2C [compound 114, 4-(5-cyanopyridin-3-yl)-N-(3-methyl-4((1S,4S)-5-methyl-2,5-diazabicyclo[2.2.1]heptan-2-yl)phenyl)pyrimidin-2-amine] |
| – | 1000 to 10000 | Cc1cc(Nc2nccc(-c3ccc(N4CCCC(C(N)=O)C4)nc3)n2)ccc1N1C[C@@H]2C[C@H]1CN2C (stereo partly drawn) [compound 191, 4-(6-(3-(aminocarbonyl)piperidin-1-yl)pyridin-3-yl)-N-(3-methyl-4-((1S,4S)-5-methyl-2,5-diazabicyclo[2.2.1]heptan-2-yl)phenyl)pyrimidin-2-amine] |
| – | 1000 to 10000 | CC(=O)N1C[C@@H]2C[C@H]1CN2c1ccc(Nc2nccc(-c3ccc(OC4CCOCC4)nc3)n2)cc1Cl [compound 260, 4-(6-(tetrahydropyran-4-yloxy)pyridin-3-yl)-N-(3-chloro-4-((1S,4S)-5-acetyl-2,5-diazabicyclo[2.2.1]heptan-2-yl)phenyl)pyrimidin-2-amine] |
| < 1000 | – | CN1C[C@@H]2C[C@H]1CN2c1ccc(Nc2nccc(-c3cncc(S(C)(=O)=O)c3)n2)cc1F [compound 101, 4-(5-(methyl)sulfonylpyridin-3-yl)-N-(3-fluoro-4-((1S,4S)-5-methyl-2,5-diazabicyclo[2.2.1]heptan-2-yl)phenyl)pyrimidin-2-amine] |
| < 1000 | – | CN1CC2(C)CN(c3ccc(Nc4nccc(-c5ccc(Cc6ccccc6)nc5)n4)cc3F)CC(C)(C1)C2 [compound 91, 4-(6-(benzyl)pyridin-3-yl)-N-(3-fluoro-4-(1,5,7-trimethyl-3,7-diazabicyclo[3.3.1]nonan-3-yl)phenyl)pyrimidin-2-amine] |
| 1000 to 10000 | – | Cc1cc(Nc2nccc(-c3ccc(CC(=O)NC4CC4)cc3)n2)ccc1N1C[C@@H]2C[C@H]1CN2C [compound 49, 4-(4-((cyclopropyl)aminocarbonyl-methyl)phenyl)-N-(3-methyl-4-((1S,4S)-5-methyl-2,5-diazabicyclo[2.2.1]heptan-2-yl)phenyl)pyrimidin-2-amine] |
| < 1000 | – | Cc1cc(Nc2nccc(-c3cnc4[nH]ccc4c3)n2)ccc1N1C[C@@H]2C[C@H]1CO2 [compound 33, 4-(1H-pyrrolo[2,3-b]pyridin-5-yl)-N-(3-methyl-4-((1S,4S)-5-oxa-2-azabicyclo[2.2.1]heptan-2-yl)phenyl)pyrimidin-2-amine] |
| < 1000 | – | Cc1cc(Nc2nccc(-c3ccc(N(C)C)cc3)n2)ccc1N1C[C@@H]2C[C@H]1CN2C [compound 14, 4-(4-(N,N-dimethylamino)phenyl)-N-(3-methyl-4-((1S,4S)-5-methyl-2,5-diazabicyclo[2.2.1]heptan-2-yl)phenyl)pyrimidin-2-amine] |
| < 1000 | – | CCCNc1ncc(-c2ccnc(Nc3ccc(N4C[C@@H]5C[C@H]4CN5C)c(F)c3)n2)cn1 [compound 93, 4-(2-(propyl)aminopyrimidin-5-yl)-N-(3-fluoro-4-((1S,4S)-5-methyl-2,5-diazabicyclo[2.2.1]heptan-2-yl)phenyl)pyrimidin-2-amine] |
| < 1000 | – | Cc1cc(Nc2nccc(-c3cnc4c(c3)OC(C)(C)C(=O)N4C)n2)ccc1N1C[C@@H]2C[C@H]1CN2C [compound 125, 4-(2,2,4-trimethyl-3-oxo-3,4-dihydro-2H-pyrido[3,2-b][1,4]oxazin-7-yl)-N-(3-methyl-4-((1S,4S)-5-methyl-2,5-diazabicyclo[2.2.1]heptan-2-yl)phenyl)pyrimidin-2-amine] |
| – | < 1000 | Cc1cc(Nc2nccc(-c3ccc4c(c3)OC(C)(C)C(=O)N4)n2)ccc1N1CCN2C(C1)[C@H]1CC[C@@H]2C1 (stereo partly drawn) [compound 244, 4-(2,2-dimethyl-3-oxo-3,4-dihydro-2H-benzo[b][1,4]oxazin-7-yl)-N-(3-methyl-4-((6R,9S)-6,9-methanooctahydro-1H-pyrido[1,2-a]pyrazin-2-yl)phenyl)pyrimidin-2-amine] |
| < 1000 | – | CC(=O)N1CCN(c2ccc(-c3ccnc(Nc4ccc(N5C[C@@H]6C[C@H]5CN6C)c(F)c4)n3)cn2)CC1 [compound 16, 4-(6-(4-acetylpiperazin-1-yl)pyridin-3-yl)-N-(3-fluoro-4-((1S,4S)-5-methyl-2,5-diazabicyclo[2.2.1]heptan-2-yl)phenyl)pyrimidin-2-amine] |
| – | < 1000 | COCCN(C)c1ccc(-c2ccnc(Nc3ccc(N4C[C@@H]5C[C@H]4CN5C)c(C)c3)n2)cn1 [compound 219, 4-(6-(2-methoxyethyl)(methyl)aminopyridin-3-yl)-N-(3-methyl-4-((1S,4S)-5-methyl-2,5-diazabicyclo[2.2.1]heptan-2-yl)phenyl)pyrimidin-2-amine] |
| < 1000 | – | CNC(=O)c1ccc(-c2ccnc(Nc3ccc(N4C[C@@H]5C[C@H]4CN5C)c(C)c3)n2)cn1 [compound 50, 4-(6-(methylaminocarbonyl)pyridin-3-yl)-N-(3-methyl-4-((1S,4S)-5-methyl-2,5-diazabicyclo[2.2.1]heptan-2-yl)phenyl)pyrimidin-2-amine] |
| – | < 1000 | Cc1cc(Nc2nccc(-c3ccc(N4C[C@H]5C[C@@H]4CO5)nc3)n2)ccc1N1C[C@@H]2C[C@H]1CN2C [compound 265, 4-(6-((1R,4R)-2-oxa-5-azabicyclo[2.2.1]heptan-5-yl)pyridin-3-yl)-N-(3-methyl-4-((1S,4S)-5-methyl-2,5-diazabicyclo[2.2.1]heptan-2-yl)phenyl)pyrimidin-2-amine] |
| – | < 1000 | Cc1cc(Nc2nccc(-c3ccc(N4CCOCC4)nc3)n2)ccc1N1C[C@@H]2C[C@H]1CN2C1CC1 [compound 254, 4-(6-(morpholin-4-yl)pyridin-3-yl)-N-(3-methyl-4-((1S,4S)-5-cyclopropyl-2,5-diazabicyclo[2.2.1]heptan-2-yl)phenyl)pyrimidin-2-amine] |
| 1000 to 10000 | – | Cc1cc(Nc2nccc(-c3csc(N(C)C)n3)n2)ccc1N1C[C@@H]2C[C@H]1CN2C [compound 175, 4-(2-(dimethylamino)thiazol-4-yl)-N-(3-methyl-4-((1S,4S)-5-methyl-2,5-diazabicyclo[2.2.1]heptan-2-yl)phenyl)pyrimidin-2-amine] |
| < 1000 | – | CN1C[C@H]2C[C@@H]1CN2c1ccc(Nc2nccc(-c3ccc(N4CCOCC4)nc3)n2)cc1F [compound 74, 4-(6-(morpholin-4-yl)pyridin-3-yl)-N-(3-fluoro-4-((1R,4R)-5-methyl-2,5-diazabicyclo[2.2.1]heptan-2-yl)phenyl)pyrimidin-2-amine] |
| – | < 1000 | CCC(=O)N1C[C@@H]2C[C@H]1CN2c1ccc(Nc2nccc(-c3ccc(N4CCOCC4)nc3)n2)cc1C [compound 196, 4-(6-(morpholin-4-yl)pyridin-3-yl)-N-(3-methyl-4-((1S,4S)-5-ethylcarbonyl-2,5-diazabicyclo[2.2.1]heptan-2-yl)phenyl)pyrimidin-2-amine] |
| – | 1000 to 10000 | CC1(C)Oc2cc(-c3ccnc(Nc4ccc(C5CC6CC5CN6S(C)(=O)=O)cc4)n3)cnc2NC1=O (stereo not shown) [compound 226, 4-(2,2-dimethyl-3-oxo-3,4-dihydro-2H-pyrido[3,2-b][1,4]oxazin-7-yl)-N-(4-(2-methylsulfonyl-2-azabicyclo[2.2.1]heptan-5-yl)phenyl)pyrimidin-2-amine] |
| – | 1000 to 10000 | Cc1cc(Nc2nccc(-c3cnc4[nH]c5c(c4c3)CCCC5)n2)ccc1N1C[C@@H]2C[C@H]1CN2S(C)(=O)=O [compound 268, 4-(6,7,8,9-tetrahydro-5H-pyrido[2,3-b]indol-3-yl)-N-(3-methyl-4-((1S,4S)-5-(methylsulfonyl)-2,5-diazabicyclo[2.2.1]heptan-2-yl)phenyl)pyrimidin-2-amine] |
| 1000 to 10000 | – | Cc1cc(Nc2nccc(-c3cnc(N4CCOCC4)nc3)n2)ccc1N1C[C@@H]2C[C@H]1CO2 [compound 42, 4-(2-(morpholin-4-yl)pyrimidin-5-yl)-N-(3-methyl-4-((1S,4S)-5-oxa-2-azabicyclo[2.2.1]heptan-2-yl)phenyl)pyrimidin-2-amine] |
